# Measurements as given in paper PMC2748668 (Pharmacological research : the official journal of the …, 2009).
# Molecular target: T1, human OATP1B1 (Homo sapiens, UniProt Q9Y6L6)
# T1 sequence (Q9Y6L6 1-691): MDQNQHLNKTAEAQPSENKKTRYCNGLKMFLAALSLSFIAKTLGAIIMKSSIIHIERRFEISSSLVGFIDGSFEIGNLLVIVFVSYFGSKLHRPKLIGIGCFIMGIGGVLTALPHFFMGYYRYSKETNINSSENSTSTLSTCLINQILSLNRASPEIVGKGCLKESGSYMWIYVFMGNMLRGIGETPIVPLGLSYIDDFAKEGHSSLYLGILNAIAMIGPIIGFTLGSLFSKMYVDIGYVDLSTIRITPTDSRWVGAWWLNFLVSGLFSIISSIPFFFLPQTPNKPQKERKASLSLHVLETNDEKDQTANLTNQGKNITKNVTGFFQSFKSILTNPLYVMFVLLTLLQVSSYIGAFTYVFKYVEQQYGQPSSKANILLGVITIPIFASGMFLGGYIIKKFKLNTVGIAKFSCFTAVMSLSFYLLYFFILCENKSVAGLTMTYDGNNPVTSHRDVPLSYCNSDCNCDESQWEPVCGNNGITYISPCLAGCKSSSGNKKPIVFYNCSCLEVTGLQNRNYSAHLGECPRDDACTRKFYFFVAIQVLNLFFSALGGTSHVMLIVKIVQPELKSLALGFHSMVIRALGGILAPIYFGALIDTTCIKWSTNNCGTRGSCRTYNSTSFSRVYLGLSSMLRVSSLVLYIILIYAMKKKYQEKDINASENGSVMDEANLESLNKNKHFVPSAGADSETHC
# Assay: not given
# Conditions: not given
row,SMILES,Ki [µM]
1,C[C@]12CC[C@@H]3c4ccc(OS(=O)(=O)O)cc4CC[C@H]3[C@@H]1CCC2=O [Estrone-3-sulfate],0.2 ± 0.02
2,CC(C)c1onc(-c2c(Cl)cccc2Cl)c1COc1ccc(/C=C/c2cccc(C(=O)O)c2)c(Cl)c1 [GW4064],32.4 ± 6.7
3,CN(CCOc1ccc(C[C@H](Nc2ccccc2C(=O)c2ccccc2)C(=O)O)cc1)c1ccccn1 [GW1929],0.3 ± 0.05

# Test system: OATP1B1
# Assay: not given
# Conditions: estrone-3-sulfate as substrate of OATP1B1; cited from earlier work
row,SMILES,Km [µM]
1,C[C@]12CC[C@@H]3c4ccc(OS(=O)(=O)O)cc4CC[C@H]3[C@@H]1CCC2=O [Estrone-3-sulfate],2.4

# Test system: Oatp1a5
# Assay: not given
# Conditions: estrone-3-sulfate as substrate of Oatp1a5; cited from earlier work
row,SMILES,Km [µM]
1,C[C@]12CC[C@@H]3c4ccc(OS(=O)(=O)O)cc4CC[C@H]3[C@@H]1CCC2=O [Estrone-3-sulfate],268

# Molecular target: T1, human OATP1B1
# Assay: cell-based
# Conditions: not given
row,SMILES,Ki [µM]
1,C[C@H](CCC(=O)O)[C@H]1CC[C@H]2[C@@H]3C(=O)C[C@@H]4CC(=O)CC[C@]4(C)[C@H]3CC(=O)[C@]12C [Dehydrocholic acid],29.7 ± 5.7
2,NC(Cc1cc(I)c(Oc2cc(I)c(O)c(I)c2)c(I)c1)C(=O)O (centres unmarked) [Thyroxine],3.5 ± 0.7
3,CC#C[C@]1(O)CC[C@H]2[C@@H]3CCC4=CC(=O)CCC4=C3[C@@H](c3ccc(N(C)C)cc3)C[C@@]21C [Mifepristone],2.2 ± 0.3
4,C[C@H](CCC(=O)O)[C@H]1CC[C@H]2[C@@H]3[C@H](O)C[C@@H]4C[C@H](O)CC[C@]4(C)[C@H]3CC[C@]12C [Chenodeoxycholic acid],3.4 ± 0.5
5,C[C@@]12CCC[C@H]1[C@@H]1CC[C@H]3CCCC[C@]3(C)[C@H]1CC2,374 ± 123
6,C[C@H](CCC(=O)O)[C@H]1CC[C@H]2[C@@H]3CC[C@@H]4C[C@H](O)CC[C@]4(C)[C@H]3C[C@H](O)[C@]12C [Deoxycholic acid],3.2 ± 0.5
7,C[C@H](CCC(=O)O)[C@H]1CC[C@H]2[C@@H]3[C@H](O)C[C@@H]4C[C@H](O)CC[C@]4(C)[C@H]3C[C@H](O)[C@]12C [Cholic acid],25 ± 3.3
8,CC(C)OC(=O)C(C)(C)Oc1ccc(C(=O)c2ccc(Cl)cc2)cc1 [Fenofibrate],105 ± 26.7
9,C[C@H](CCC(=O)O)[C@H]1CC[C@H]2[C@@H]3CC[C@@H]4C[C@H](O)CC[C@]4(C)[C@H]3CC[C@]12C [Lithocholic acid],1.2 ± 0.2
10,Clc1ccccc1C(c1ccccc1)(c1ccccc1)n1ccnc1 [Clotrimazole],7.6 ± 1.9
11,C[C@H](CCC(=O)NCC(=O)O)[C@H]1CC[C@H]2[C@@H]3[C@H](O)C[C@@H]4C[C@H](O)CC[C@]4(C)[C@H]3C[C@H](O)[C@]12C [Glycocholic acid],22.2 ± 3.9
12,Cc1cccc(Nc2cc(Cl)nc(SCC(=O)O)n2)c1C [WY-14643],1.6 ± 0.11
13,C[C@]12CC[C@@H]3c4ccc(O)cc4CC[C@H]3[C@@H]1CC[C@@H]2O [Estradiol],3.3 ± 0.6
14,CC(C)(Oc1ccc(CCNC(=O)c2ccc(Cl)cc2)cc1)C(=O)O [Bezafibrate],45.2 ± 5.9
15,CC[C@H](C)C(=O)O[C@H]1C[C@H](O)C=C2C=C[C@H](C)[C@H](CC[C@@H](O)C[C@@H](O)CC(=O)O)[C@H]21 [Pravastatin],21.8 ± 3.6
16,CC[C@H](C)C(=O)O[C@H]1C[C@@H](C)C=C2C=C[C@H](C)[C@H](CC[C@@H]3C[C@@H](O)CC(=O)O3)[C@H]21 [Mevinolin],12.7 ± 1.9

# Molecular target: T1, human OATP1B1
# Assay: Inhibition kinetic studies
# Conditions: not given
row,SMILES,Ki [µM]
1,C[C@H](CCC(=O)NCCS(=O)(=O)O)[C@H]1CC[C@H]2[C@@H]3[C@H](O)C[C@@H]4C[C@H](O)CC[C@]4(C)[C@H]3C[C@H](O)[C@]12C [Taurocholic acid],11.4 ± 3.2

# Same assay, conditions: Km of the model substrate given in the Ki column (footnote *), mean ± SD
row,SMILES,Km [µM]
1,C[C@]12CC[C@@H]3c4ccc(O)cc4CC[C@H]3[C@@H]1CC[C@@H]2O[C@@H]1O[C@H](C(=O)O)[C@@H](O)[C@H](O)[C@H]1O,5.9 ± 1.2
